The record followed here is US7737143B2, “Substituted pyrazines as kinase inhibitors” (YM Biosciences Australia Pty Ltd, priority 2003, dated 2010).

The target of test [1] is T1, human JAK3 (Homo sapiens, UniProt P52333).
T1 construct: The kinase domain of human JAK3 was amplified from U937mRNA; His tag (pFastBac HTb vector; nickel chelate purification) (N); made in house; host or cells: baculovirus; Sf9 for virus, High Five insect cells for production
As to the kind of experiment: JAK kinase assay (ELISA or Alphascreen), Jak3. The format is biochemical. Conditions: standard conditions, read-out: Jak3 inhibition of enzyme activity. The text has this: The kinase domain of human JAK3 was amplified from U937mRNA using the polymerase chain reaction with the following primers: […]
JAK3 PCR products were cloned into the pFastBac HTb expression vector (Gibco) via the Xho I and Kpn I sites. The JAK3 plasmid was then transformed into competent DH10Bac cells (Gibco), and the recombinant baculovirus produced prepared for transfection into Sf9 insect cells.
(§1) Baculovirus preparations from each of the JAK family members were infected into five litres of High Five cells (Invitrogen) grown in High Five serum free medium (Invitrogen) to a cell density of approximately 1-2×10^6 cells/ml. Cells are infected with virus at a MOI of 0.8-3.0. Cells were harvested and lysed. JAK kinase domains were purified by affinity chromatography on a Probond (Invitrogen) nickel chelate affinity column.
(§2) Kinase assays were performed either in a 96 well capture-based ELISA assay or in 384 well Optiplates (Packard) using an Alphascreen Protein Tyrosine Kinase kit. In either case using approximately 15 μg of affinity purified PTK domain in the presence of 50 mM HEPES, pH 7.5, 10 mM MgCl2 150 mM NaCl and 10 μM-1 mM ATP. The biotinylated substrate biotin-EGPWLEEEEEAYGWMDF-NH2 (final concentration 5 μM) was used as substrate. In the ELISA assay tyrosine phosphorylation was quantitated following transfer to an avidin coated ELISA plate using peroxidase-linked anti-phospho-tyrosine antibody PY20. In the Alphascreen assay, Alphascreen phosphotyrosine acceptor beads followed by streptavidin donor beads were added under subdued light. The ELISA plates were read on a BMG Fluorostar, the Alphascreen plates were read on a Packard Fusion Alpha. Inhibitors were added to the assays fifteen minutes prior to the addition of ATP. Inhibitors were added in aqueous DMSO, with DMSO concentrations never exceeding 1%.

Test [2] concerns the target T2, human JAK2 (Homo sapiens, UniProt O60674).
T2 construct: The kinase domain of human JAK2 was amplified from U937mRNA; His tag (pFastBac HTc vector; nickel chelate purification) (N); made in house; host or cells: baculovirus; Sf9 for virus, High Five insect cells for production
The test can be described thus: JAK kinase assay (ELISA or Alphascreen), Jak2. The format is biochemical. The settings on record: standard conditions, read-out: Jak2 inhibition of enzyme activity.
Excerpt: The kinase domain of human JAK2 was amplified from U937mRNA using the polymerase chain reaction with the following primers: […]
JAK2 PCR products were cloned into the pFastBac HTc expression vector (Gibco) via the Sal I and Not I sites. The JAK2 plasmid was then transformed into competent DHL10Bac cells (Gibco), and the recombinant baculovirus produced prepared for transfection into Sf9 insect cells.
as §1, §2
Background: ELISA stands for enzyme-linked immunosorbent assay.

T1 sequence (P52333 822-1111 limits assumed): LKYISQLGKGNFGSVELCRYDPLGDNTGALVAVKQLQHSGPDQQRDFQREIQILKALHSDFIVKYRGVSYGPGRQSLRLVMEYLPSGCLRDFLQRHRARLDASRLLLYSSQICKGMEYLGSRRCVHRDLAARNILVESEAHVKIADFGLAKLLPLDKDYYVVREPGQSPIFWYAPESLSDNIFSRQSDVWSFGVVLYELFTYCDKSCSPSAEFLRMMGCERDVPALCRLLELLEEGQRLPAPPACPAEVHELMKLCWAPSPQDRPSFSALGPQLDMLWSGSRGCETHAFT
T2 sequence (O60674 849-1124 limits assumed): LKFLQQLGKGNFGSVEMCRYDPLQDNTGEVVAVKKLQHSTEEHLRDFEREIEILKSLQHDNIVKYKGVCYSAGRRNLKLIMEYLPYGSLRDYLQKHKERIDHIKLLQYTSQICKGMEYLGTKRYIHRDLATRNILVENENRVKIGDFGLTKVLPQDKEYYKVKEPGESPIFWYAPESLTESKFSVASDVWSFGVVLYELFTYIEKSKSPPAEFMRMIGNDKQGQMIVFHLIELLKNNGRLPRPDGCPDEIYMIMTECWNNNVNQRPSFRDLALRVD

Usually inhibition stands for the change of the read-out against control, counted positive when it falls. For `C[C@H](Nc1cncc(-n2cnc3cc(NS(=O)(=O)c4ccccc4)ccc32)n1)c1ccccc1`, the inhibition at 20 µM in test [1] and in test [2] was no less than 50% throughout.

In the case of `CC(Nc1cncc(-n2cnc3ccccc32)n1)c1cccc(Cl)c1` (stereo not shown), the inhibition at 20 µM in test [1] and in test [2] was less than 50% each time.

On to `CC(Nc1cncc(-n2cnc3ccccc32)n1)c1ccc(-n2ccnc2)cc1` (stereo not shown), for which the inhibition at 20 µM in test [1] and in test [2] was less than 50% in each case.

`c1ccc2c(c1)ncn2-c1cncc(-c2ccncc2)n1`: the inhibition at 20 µM was less than 50% in test [1] and no less than 50% in test [2].

Take `c1cncc(-c2cncc(-n3cnc4ccccc43)n2)c1`: the inhibition at 20 µM in test [1] was less than 50%; in test [2] it was no less than 50%.

Take `O=S(=O)(Nc1ccc(-c2cncc(-n3cnc4ccccc43)n2)cc1)c1ccccc1`: the inhibition at 20 µM in test [1] and in test [2] was no less than 50% each time.

As to `CCCC(Nc1cncc(-n2cnc3ccccc32)n1)c1ccccc1` (stereo not shown), the results for the inhibition at 20 µM in test [1] and in test [2] were less than 50% and no less than 50%, respectively.

For the molecule `CC(Nc1cncc(-n2cnc3ccc(CN4CCN(C)CC4)cc32)n1)c1ccc(F)cc1` (stereo not shown), the inhibition at 20 µM in test [1] and in test [2] was less than 50% throughout.

As to `CCN(CC)Cc1ccc2ncn(-c3cncc(NC(C)c4ccc(F)cc4)n3)c2c1` (stereo not shown), the inhibition at 20 µM in test [1] and in test [2] was less than 50% each time.

In the case of `CC(Nc1cncc(-n2cnc3cc(CNCCN(C)C)ccc32)n1)c1ccc(F)cc1` (stereo not shown), the inhibition at 20 µM in test [1] and in test [2] was less than 50% in each case.

`CC(Nc1cncc(-n2cnc3ccncc32)n1)c1ccc(F)cc1` (stereo not shown): the inhibition at 20 µM in test [1] and in test [2] was less than 50% throughout.

Take `C[C@H](Nc1cncc(-n2cnc3cc(CO)ccc32)n1)c1ccc(F)cc1`: the inhibition at 20 µM in test [1] and in test [2] was less than 50% each time.

For `C[C@H](Nc1cncc(-n2cnc3ccc(CN4CCC(O)CC4)cc32)n1)c1ccc(F)cc1`, the inhibition at 20 µM in test [1] was less than 50%; in test [2], no less than 50%.

Take `C[C@H](Nc1cncc(-n2cnc3ccc(CN4CCN(CCN)CC4)cc32)n1)c1ccc(F)cc1`: the inhibition at 20 µM in test [1] and in test [2] was less than 50% in each case.

Turning to `CC(Nc1cncc(-n2cnc3ccc(C#N)cc32)n1)c1cccc2ccccc12` (stereo not shown), the inhibition at 20 µM in test [1] and in test [2] was less than 50% in each case.

Take `C[C@H](Nc1cncc(-n2cnc3ccc(-c4nn[nH]n4)cc32)n1)c1ccc(F)cc1`: the inhibition at 20 µM in test [1] is less than 50%; in test [2], no less than 50%.

Consider `C[C@H](Nc1cncc(-n2cnc3cc(C#N)ccc32)n1)c1ccccc1`, for which the inhibition at 20 µM in test [1] and in test [2] was no less than 50% each time.

For `C[C@H](Nc1cncc(-n2cnc3ccc(C#N)cc32)n1)c1ccccc1`, the inhibition at 20 µM in test [1] and in test [2] was no less than 50% in each case.

As to `C[C@H](Nc1cncc(-n2ncc3ccccc32)n1)c1ccc(F)cc1`, the inhibition at 20 µM in test [1] and in test [2] was less than 50% in each case.

In the case of `C[C@H](Nc1cncc(-n2cc3ccccc3n2)n1)c1ccc(F)cc1`, the inhibition at 20 µM in test [1] and in test [2] was less than 50% each time.

`CC(Nc1cncc(-n2cnc3ccc(C#N)cc32)n1)c1ccc(F)c(F)c1` (stereo not shown): the inhibition at 20 µM in test [1] and in test [2] was no less than 50% throughout.

`CC(Nc1cncc(-n2cnc3cc(C#N)ccc32)n1)c1ccc(F)c(F)c1` (stereo not shown): the inhibition at 20 µM in test [1] and in test [2] was no less than 50% each time.

Turning to `CC(Nc1cncc(-n2cnc3cc(C#N)ccc32)n1)c1cccc(F)c1` (stereo not shown), the inhibition at 20 µM in test [1] and in test [2] was no less than 50% throughout.

Consider `N#Cc1ccc2ncn(-c3cncc(N[C@H]4CCCc5ccccc54)n3)c2c1`, for which the inhibition at 20 µM in test [1] and in test [2] was less than 50% in each case.

As for `CC(Nc1cncc(-n2cnc3cc(C#N)ccc32)n1)c1cc(F)cc(F)c1` (stereo not shown), the inhibition at 20 µM is less than 50% in test [1] and no less than 50% in test [2].

For `CC(Nc1cncc(-n2cnc3ccc(C#N)cc32)n1)c1cccc(C(F)(F)F)c1` (stereo not shown), the inhibition at 20 µM in test [1] is less than 50%; in test [2], no less than 50%.

In the case of `CC(Nc1cncc(-n2cnc3cc(C#N)ccc32)n1)c1cccc(C(F)(F)F)c1` (stereo not shown), the inhibition at 20 µM in test [1] and in test [2] was less than 50% throughout.

Take `CC(Nc1cncc(-n2cnc3ccc(C#N)cc32)n1)c1ccc(F)c(Cl)c1` (stereo not shown): the inhibition at 20 µM in test [1] and in test [2] was no less than 50% throughout.

Take `CC(Nc1cncc(-n2cnc3ccc(C#N)cc32)n1)c1cccc(OC(F)(F)F)c1` (stereo not shown): the inhibition at 20 µM in test [1] and in test [2] was less than 50% each time.

Consider `CC(Nc1cncc(-n2cnc3cc(C#N)ccc32)n1)c1cccc(OC(F)(F)F)c1` (stereo not shown), for which the inhibition at 20 µM in test [1] and in test [2] was less than 50% each time.

Take `N#Cc1ccc2ncn(-c3cncc(NC4Cc5ccccc5C4)n3)c2c1`: the inhibition at 20 µM in test [1] and in test [2] was less than 50% throughout.

For the molecule `N#Cc1ccc2c(c1)ncn2-c1cncc(NC2Cc3ccccc3C2)n1`, the inhibition at 20 µM in test [1] and in test [2] was less than 50% each time.

For the molecule `N#Cc1ccc2ncn(-c3cncc(N4CCc5ccccc5C4)n3)c2c1`, the inhibition at 20 µM in test [1] and in test [2] was less than 50% in each case.

Consider `N#Cc1ccc2c(c1)ncn2-c1cncc(N2CCc3ccccc3C2)n1`, for which the inhibition at 20 µM in test [1] and in test [2] was less than 50% in each case.

For the molecule `CC[C@H](Nc1cncc(-n2cnc3ccc(C#N)cc32)n1)c1ccccc1`, the inhibition at 20 µM in test [1] and in test [2] was no less than 50% each time.

Consider `C[C@H](Nc1cncc(-n2cnc3cccnc32)n1)c1ccccc1`, for which the inhibition at 20 µM in test [1] and in test [2] was less than 50% throughout.

On to `C[C@H](Nc1cncc(-n2cnc3ncccc32)n1)c1ccccc1`, for which the inhibition at 20 µM in test [1] and in test [2] was less than 50% each time.

As to `C[C@H](Nc1cncc(-n2cnc3cccnc32)n1)c1ccc(F)cc1`, the inhibition at 20 µM in test [1] and in test [2] was less than 50% in each case.

Turning to `C[C@H](Nc1cncc(-n2cnc3ncccc32)n1)c1ccc(F)cc1`, the inhibition at 20 µM in test [1] and in test [2] was less than 50% in each case.

Take `Cc1ccc([C@H](C)Nc2cncc(-n3cnc4cc(C#N)ccc43)n2)cc1`: the inhibition at 20 µM was less than 50% in test [1] and no less than 50% in test [2].

Take `C[C@@H](c1ccccc1)N(C)c1cncc(-n2cnc3cc(C#N)ccc32)n1`: the inhibition at 20 µM in test [1] and in test [2] was less than 50% in each case.

In the case of `Cc1ncc(-n2cnc3ccc(C#N)cc32)nc1N[C@@H](C)c1ccccc1`, the inhibition at 20 µM in test [1] and in test [2] was no less than 50% in each case.

Regarding `N#Cc1ccc2ncn(-c3cncc(Cl)n3)c2c1`, the inhibition at 20 µM in test [1] and in test [2] was less than 50% in each case.

Regarding `CC1CC(Nc2cncc(-n3cnc4ccc(C#N)cc43)n2)c2ccccc21` (stereo not shown), the inhibition at 20 µM in test [1] and in test [2] was less than 50% in each case.

For `COc1cccc2c1CCC2Nc1cncc(-n2cnc3ccc(C#N)cc32)n1` (stereo not shown), the inhibition at 20 µM in test [1] is no less than 50%; in test [2], less than 50%.

Consider `COc1cccc2c1CCC2Nc1cncc(-n2cnc3cc(C#N)ccc32)n1` (stereo not shown), for which the inhibition at 20 µM in test [1] and in test [2] was less than 50% in each case.

Turning to `COc1ccc2c(c1)CCC2Nc1cncc(-n2cnc3cc(C#N)ccc32)n1` (stereo not shown), the inhibition at 20 µM in test [1] and in test [2] was less than 50% in each case.

Consider `N#Cc1ccc2c(c1)ncn2-c1cncc(NC2CCc3ccc(O)cc32)n1` (stereo not shown), for which the inhibition at 20 µM in test [1] and in test [2] was less than 50% throughout.

As to `N#Cc1ccc2ncn(-c3cncc(NC4CCc5cc(F)ccc54)n3)c2c1` (stereo not shown), the inhibition at 20 µM in test [1] and in test [2] was less than 50% throughout.

Take `N#Cc1ccc2ncn(-c3cncc(NC4CCc5cc(Br)ccc54)n3)c2c1` (stereo not shown): the results for the inhibition at 20 µM in test [1] and in test [2] were no less than 50% and less than 50%, respectively.

With `N#Cc1ccc2c(c1)ncn2-c1cncc(NC2CCc3cc(Br)ccc32)n1` (stereo not shown), the inhibition at 20 µM in test [1] and in test [2] was less than 50% throughout.

`CC(Nc1cncc(-n2cnc3ccc(C#N)cc32)n1)c1ccccn1` (stereo not shown): the inhibition at 20 µM in test [1] and in test [2] was no less than 50% in each case.

For `CC(Nc1cncc(-n2cnc3cc(C#N)ccc32)n1)c1ccccn1` (stereo not shown), the values for the inhibition at 20 µM in test [1] and in test [2] were less than 50% and no less than 50%, respectively.
